# Source: patent US7285395B2, “Stearoyl-CoA desaturase 4 gene” (Wisconsin Alumni Research Foundation, priority 2004, dated 2007)
# Experiments:
# Type in all cases: in vivo, mouse
# Settings in all cases: heart, 129SV mice, chow diet containing 0.025% T0901317 fed for 2 days
# mSCD1 = test: quantitative RT-PCR of mSCD1 mRNA in hearts of mice fed test diets
# Method: (§1) The mice were fed the following diets. A, a high carbohydrate fat-free diet (CHO-FF). B, high carbohydrate fat-free diet supplemented with fish oil (CHO-FO) that was fed for 4 days. C, chow diet supplemented with the LXRα agonist T0901317 (LXR) and fed for 2 days. Total RNA from hearts of mice from each group (n=4) was subjected to quantitative RT-PCR using specific primers as described in the example below. The fold change was calculated after correction for the levels of cyclophilin used as a standard. Each value represents the mean±S.E. (n=4). *, p<0.01; **, p<0.001 versus wild type (Student's t test).
# (§2) Animals and Diets—Male C57BL6J and ob/ob mice were obtained from the Jackson Laboratory (Bar Harbor, Me.). 129S6/SvEv mice were purchased from Taconic (Germantown, N.Y.). […]
# (§3) Cloning and Expression of the Mouse SCD4 cDNA—A BLAST search of the mouse genomic data base identified a gene with exon sequences highly homologous to the amino acid sequence of mouse SCD1, 2, and 3 (GenBank™ accession numbers AH—002082, M26270, and AF272037, respectively). Using the genomic sequence, a candidate open reading frame of the putative SCD4 was cloned by synthesizing a forward and a reverse primer. […]
# mSCD2 = test: quantitative RT-PCR of mSCD2 mRNA in hearts of mice fed test diets
# Method: as §1, §2, §3
# mSCD4 = test: quantitative RT-PCR of mSCD4 mRNA in hearts of mice fed test diets
# Method: as §1, §2, §3
structure (smiles),measurement,setting,value
O=S(=O)(c1ccccc1)N(CC(F)(F)F)c1ccc(C(O)(C(F)(F)F)C(F)(F)F)cc1 [T0901317],induction of mouse SCD1 mRNA,mSCD1,18 fold
same,induction of mouse SCD2 mRNA,mSCD2,12 fold
same,induction of mouse SCD4 mRNA,mSCD4,60 fold
